According to ChEMBL document CHEMBL4507258 (2021):

Experiments:
[1] = system: Tyrosine-protein kinase ABL1 (Homo sapiens), P00519 [F317I]; settings: Compound concentration 1000.0 nM
[2] = system: Tyrosine-protein kinase ABL1 (Homo sapiens), P00519 [H396P]; settings: Compound concentration 1000.0 nM
[3] = molecular target: Tyrosine-protein kinase Blk (Homo sapiens) (UniProt P51451); settings: Compound concentration 1000.0 nM
[4] = molecular target: Calcium/calmodulin-dependent protein kinase type 1D (Homo sapiens) (UniProt Q8IU85); settings: Compound concentration 1000.0 nM
[5] = molecular target: Calcium/calmodulin-dependent protein kinase type 1G (Homo sapiens) (UniProt Q96NX5); settings: Compound concentration 1000.0 nM
[6] = molecular target: Calcium/calmodulin-dependent protein kinase type II subunit alpha (Homo sapiens) (UniProt Q9UQM7); settings: Compound concentration 1000.0 nM
[7] = molecular target: Cyclin-dependent kinase-like 2 (Homo sapiens) (UniProt Q92772); settings: Compound concentration 1000.0 nM
[8] = molecular target: Cyclin-dependent kinase-like 3 (Homo sapiens) (UniProt Q8IVW4); settings: Compound concentration 1000.0 nM
[9] = molecular target: Epidermal growth factor receptor (Homo sapiens) (UniProt P00533); settings: Compound concentration 1000.0 nM
[10] = system: Epidermal growth factor receptor (Homo sapiens), P00533 [G719C]; settings: Compound concentration 1000.0 nM
[11] = molecular target: Receptor tyrosine-protein kinase erbB-2 (Homo sapiens) (UniProt P04626); settings: Compound concentration 1000.0 nM
[12] = molecular target: Mitogen-activated protein kinase 7 (Homo sapiens) (UniProt Q13164); settings: Compound concentration 1000.0 nM
[13] = molecular target: Tyrosine-protein kinase Fes/Fps (Homo sapiens) (UniProt P07332); settings: Compound concentration 1000.0 nM
[14] = system: Receptor-type tyrosine-protein kinase FLT3 (Homo sapiens), P36888 [D835H]; settings: Compound concentration 1000.0 nM
[15] = system: Receptor-type tyrosine-protein kinase FLT3 (Homo sapiens), P36888 [UNDEFINED MUTATION]; settings: Compound concentration 1000.0 nM
[16] = system: Receptor-type tyrosine-protein kinase FLT3 (Homo sapiens), P36888 [UNDEFINED MUTATION]; settings: Compound concentration 1000.0 nM; remark: listed apart in the source
[17] = molecular target: Tyrosine-protein kinase FRK (Homo sapiens) (UniProt P42685); settings: Compound concentration 1000.0 nM
[18] = molecular target: Glycogen synthase kinase-3 beta (Homo sapiens) (UniProt P49841); settings: Compound concentration 1000.0 nM
[19] = molecular target: Homeodomain-interacting protein kinase 4 (Homo sapiens) (UniProt Q8NE63); settings: Compound concentration 1000.0 nM
[20] = molecular target: Mitogen-activated protein kinase 9 (Homo sapiens) (UniProt P45984); settings: Compound concentration 1000.0 nM
[21] = system: Mast/stem cell growth factor receptor Kit (Homo sapiens), P10721 [A829P]; settings: Compound concentration 1000.0 nM
[22] = system: Mast/stem cell growth factor receptor Kit (Homo sapiens), P10721 [V559D]; settings: Compound concentration 1000.0 nM
[23] = molecular target: Tyrosine-protein kinase Lck (Homo sapiens) (UniProt P06239); settings: Compound concentration 1000.0 nM
[24] = molecular target: Mitogen-activated protein kinase kinase kinase 4 (Homo sapiens) (UniProt Q9Y6R4); settings: Compound concentration 1000.0 nM
[25] = molecular target: Mitogen-activated protein kinase kinase kinase kinase 2 (Homo sapiens) (UniProt Q12851); settings: Compound concentration 1000.0 nM
[26] = molecular target: Mitogen-activated protein kinase kinase kinase kinase 4 (Homo sapiens) (UniProt O95819); settings: Compound concentration 1000.0 nM
[27] = molecular target: MAP kinase-activated protein kinase 2 (Homo sapiens) (UniProt P49137); settings: Compound concentration 1000.0 nM
[28] = molecular target: Dual specificity mitogen-activated protein kinase kinase 4 (Homo sapiens) (UniProt P45985); settings: Compound concentration 1000.0 nM
[29] = molecular target: Myosin-IIIb (Homo sapiens) (UniProt Q8WXR4); settings: Compound concentration 1000.0 nM
[30] = molecular target: Serine/threonine-protein kinase OSR1 (Homo sapiens) (UniProt O95747); settings: Compound concentration 1000.0 nM
[31] = molecular target: Phosphorylase b kinase gamma catalytic chain, skeletal muscle/heart isoform (Homo sapiens) (UniProt Q16816); settings: Compound concentration 1000.0 nM
[32] = molecular target: Phosphatidylinositol 5-phosphate 4-kinase type-2 beta (Homo sapiens) (UniProt P78356); settings: Compound concentration 1000.0 nM
[33] = molecular target: Serine/threonine-protein kinase PLK4 (Homo sapiens) (UniProt O00444); settings: Compound concentration 1000.0 nM
[34] = molecular target: Protein kinase C epsilon type (Homo sapiens) (UniProt Q02156); settings: Compound concentration 1000.0 nM
[35] = molecular target: Serine/threonine-protein kinase D1 (Homo sapiens) (UniProt Q15139); settings: Compound concentration 1000.0 nM
[36] = system: Proto-oncogene tyrosine-protein kinase receptor Ret (Homo sapiens), P07949 [V804L]; settings: Compound concentration 1000.0 nM
[37] = molecular target: Receptor-interacting serine/threonine-protein kinase 4 (Homo sapiens) (UniProt P57078); settings: Compound concentration 1000.0 nM
[38] = molecular target: Ribosomal protein S6 kinase alpha-5 (Homo sapiens) (UniProt O75582); settings: Compound concentration 1000.0 nM
[39] = molecular target: Ribosomal protein S6 kinase alpha-6 (Homo sapiens) (UniProt Q9UK32); settings: Compound concentration 1000.0 nM
[40] = molecular target: Serine/threonine-protein kinase Sgk2 (Homo sapiens) (UniProt Q9HBY8); settings: Compound concentration 1000.0 nM
[41] = molecular target: Activated CDC42 kinase 1 (Homo sapiens) (UniProt Q07912); settings: Compound concentration 1000.0 nM
[42] = molecular target: Serine/threonine-protein kinase TNNI3K (Homo sapiens) (UniProt Q59H18); settings: Compound concentration 1000.0 nM
[43] = molecular target: Testis-specific serine/threonine-protein kinase 1 (Homo sapiens) (UniProt Q9BXA7); settings: Compound concentration 1000.0 nM
[44] = molecular target: Sodium-dependent dopamine transporter (Homo sapiens) (UniProt Q01959); settings: Compound concentration 10.0 uM
[45] = molecular target: Alpha-2B adrenergic receptor (Homo sapiens) (UniProt P18089); settings: Compound concentration 10.0 uM

Sequence of Calcium/calmodulin-dependent protein kinase type II subunit alpha (Homo sapiens) (Q9UQM7 whole entry): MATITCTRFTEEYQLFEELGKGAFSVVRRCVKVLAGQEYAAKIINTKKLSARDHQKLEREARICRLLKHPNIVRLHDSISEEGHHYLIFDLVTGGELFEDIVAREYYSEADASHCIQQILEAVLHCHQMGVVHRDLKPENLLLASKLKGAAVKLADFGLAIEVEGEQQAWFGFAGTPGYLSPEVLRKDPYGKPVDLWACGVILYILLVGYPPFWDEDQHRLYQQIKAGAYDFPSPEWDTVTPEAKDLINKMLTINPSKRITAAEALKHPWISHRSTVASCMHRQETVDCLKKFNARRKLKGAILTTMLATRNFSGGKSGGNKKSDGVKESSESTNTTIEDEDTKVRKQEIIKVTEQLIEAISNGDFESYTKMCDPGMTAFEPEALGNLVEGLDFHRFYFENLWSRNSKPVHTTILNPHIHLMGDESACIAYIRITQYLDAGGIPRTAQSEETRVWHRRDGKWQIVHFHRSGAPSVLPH
Sequence of Tyrosine-protein kinase Blk (Homo sapiens) (P51451 2-505 limits assumed): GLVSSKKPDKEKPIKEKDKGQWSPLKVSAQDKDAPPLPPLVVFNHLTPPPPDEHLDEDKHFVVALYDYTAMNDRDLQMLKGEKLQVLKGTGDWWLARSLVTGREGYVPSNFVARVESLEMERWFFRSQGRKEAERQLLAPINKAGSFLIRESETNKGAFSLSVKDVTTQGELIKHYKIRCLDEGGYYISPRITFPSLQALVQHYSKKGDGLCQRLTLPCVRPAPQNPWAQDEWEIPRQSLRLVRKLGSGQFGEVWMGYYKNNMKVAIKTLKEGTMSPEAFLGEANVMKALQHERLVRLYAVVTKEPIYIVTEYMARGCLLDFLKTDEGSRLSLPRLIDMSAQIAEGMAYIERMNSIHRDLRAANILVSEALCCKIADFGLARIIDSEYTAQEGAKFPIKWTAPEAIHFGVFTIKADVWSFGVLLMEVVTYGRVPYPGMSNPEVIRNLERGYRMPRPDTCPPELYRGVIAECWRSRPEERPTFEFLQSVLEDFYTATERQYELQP
Sequence of Receptor-interacting serine/threonine-protein kinase 4 (Homo sapiens) (P57078 whole entry): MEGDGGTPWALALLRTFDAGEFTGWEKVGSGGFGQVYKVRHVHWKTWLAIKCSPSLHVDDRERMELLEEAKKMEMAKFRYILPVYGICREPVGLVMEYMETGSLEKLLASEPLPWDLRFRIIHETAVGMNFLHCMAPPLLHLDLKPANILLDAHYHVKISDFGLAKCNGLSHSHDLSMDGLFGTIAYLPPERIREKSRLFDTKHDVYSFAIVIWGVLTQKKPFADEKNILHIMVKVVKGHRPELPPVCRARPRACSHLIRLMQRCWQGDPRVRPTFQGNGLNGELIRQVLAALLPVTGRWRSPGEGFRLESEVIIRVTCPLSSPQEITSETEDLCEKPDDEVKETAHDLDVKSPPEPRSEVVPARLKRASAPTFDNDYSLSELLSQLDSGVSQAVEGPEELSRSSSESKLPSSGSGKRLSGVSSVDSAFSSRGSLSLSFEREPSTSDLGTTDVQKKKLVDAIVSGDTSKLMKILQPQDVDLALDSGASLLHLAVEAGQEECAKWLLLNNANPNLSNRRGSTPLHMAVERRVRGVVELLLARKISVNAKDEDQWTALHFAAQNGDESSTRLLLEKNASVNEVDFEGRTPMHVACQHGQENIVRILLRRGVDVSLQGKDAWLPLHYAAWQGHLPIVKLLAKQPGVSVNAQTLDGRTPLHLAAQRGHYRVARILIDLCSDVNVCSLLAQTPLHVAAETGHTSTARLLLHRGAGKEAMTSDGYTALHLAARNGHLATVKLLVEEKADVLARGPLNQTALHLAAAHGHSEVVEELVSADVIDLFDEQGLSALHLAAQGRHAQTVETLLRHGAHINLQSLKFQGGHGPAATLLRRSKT
Sequence of Receptor tyrosine-protein kinase erbB-2 (Homo sapiens) (P04626 whole entry): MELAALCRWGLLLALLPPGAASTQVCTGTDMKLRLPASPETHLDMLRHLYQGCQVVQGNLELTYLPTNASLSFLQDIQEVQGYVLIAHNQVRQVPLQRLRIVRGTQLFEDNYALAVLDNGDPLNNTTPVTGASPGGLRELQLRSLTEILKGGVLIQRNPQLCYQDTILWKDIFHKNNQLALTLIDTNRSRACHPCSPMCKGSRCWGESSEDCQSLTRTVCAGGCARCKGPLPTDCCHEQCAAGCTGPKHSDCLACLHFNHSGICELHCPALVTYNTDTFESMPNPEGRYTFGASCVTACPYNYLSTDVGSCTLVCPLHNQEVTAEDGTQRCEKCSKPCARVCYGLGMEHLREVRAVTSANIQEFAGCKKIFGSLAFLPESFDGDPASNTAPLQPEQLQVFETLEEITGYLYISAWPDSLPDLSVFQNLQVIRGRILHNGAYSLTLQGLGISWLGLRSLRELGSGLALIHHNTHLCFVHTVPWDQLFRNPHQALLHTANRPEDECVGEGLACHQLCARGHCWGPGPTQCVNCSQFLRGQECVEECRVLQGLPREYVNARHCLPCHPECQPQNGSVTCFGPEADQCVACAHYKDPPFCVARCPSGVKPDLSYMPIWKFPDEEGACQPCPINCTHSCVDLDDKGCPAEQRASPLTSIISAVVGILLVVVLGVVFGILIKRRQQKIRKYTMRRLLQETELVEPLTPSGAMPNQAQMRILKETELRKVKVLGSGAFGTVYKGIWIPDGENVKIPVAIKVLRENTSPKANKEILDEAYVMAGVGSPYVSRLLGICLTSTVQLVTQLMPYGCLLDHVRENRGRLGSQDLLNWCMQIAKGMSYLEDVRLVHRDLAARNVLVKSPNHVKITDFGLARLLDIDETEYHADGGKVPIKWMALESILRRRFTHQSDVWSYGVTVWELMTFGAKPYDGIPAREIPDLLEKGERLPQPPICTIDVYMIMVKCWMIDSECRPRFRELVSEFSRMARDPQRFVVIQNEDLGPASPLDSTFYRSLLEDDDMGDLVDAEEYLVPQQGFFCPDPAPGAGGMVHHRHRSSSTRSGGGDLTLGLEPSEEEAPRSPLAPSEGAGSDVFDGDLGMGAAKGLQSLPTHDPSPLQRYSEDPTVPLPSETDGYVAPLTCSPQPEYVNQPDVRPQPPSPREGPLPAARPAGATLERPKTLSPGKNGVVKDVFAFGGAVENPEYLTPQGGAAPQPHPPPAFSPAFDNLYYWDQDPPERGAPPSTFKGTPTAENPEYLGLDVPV
Sequence of MAP kinase-activated protein kinase 2 (Homo sapiens) (P49137 whole entry, looked up): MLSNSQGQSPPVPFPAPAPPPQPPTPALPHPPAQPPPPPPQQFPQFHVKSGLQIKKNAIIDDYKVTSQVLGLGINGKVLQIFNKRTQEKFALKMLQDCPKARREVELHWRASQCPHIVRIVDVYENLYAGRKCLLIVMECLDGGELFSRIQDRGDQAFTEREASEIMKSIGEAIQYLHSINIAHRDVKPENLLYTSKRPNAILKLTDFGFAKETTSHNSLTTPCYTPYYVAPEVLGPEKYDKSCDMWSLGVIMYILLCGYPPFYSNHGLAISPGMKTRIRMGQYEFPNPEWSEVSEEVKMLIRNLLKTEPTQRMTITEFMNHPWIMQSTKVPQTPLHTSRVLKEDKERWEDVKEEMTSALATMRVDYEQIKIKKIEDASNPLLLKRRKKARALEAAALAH
Sequence of Calcium/calmodulin-dependent protein kinase type 1D (Homo sapiens) (Q8IU85 whole entry, looked up): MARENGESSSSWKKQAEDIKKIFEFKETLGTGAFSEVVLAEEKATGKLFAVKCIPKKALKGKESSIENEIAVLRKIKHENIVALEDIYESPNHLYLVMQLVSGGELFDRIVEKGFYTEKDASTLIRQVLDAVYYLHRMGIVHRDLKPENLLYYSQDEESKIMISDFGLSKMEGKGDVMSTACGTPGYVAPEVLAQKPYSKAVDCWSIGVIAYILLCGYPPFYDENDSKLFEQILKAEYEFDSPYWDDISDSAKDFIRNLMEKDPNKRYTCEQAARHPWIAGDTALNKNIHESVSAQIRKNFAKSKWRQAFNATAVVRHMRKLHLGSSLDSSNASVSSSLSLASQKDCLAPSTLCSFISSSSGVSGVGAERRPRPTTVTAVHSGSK
Sequence of Serine/threonine-protein kinase Sgk2 (Homo sapiens) (Q9HBY8 whole entry): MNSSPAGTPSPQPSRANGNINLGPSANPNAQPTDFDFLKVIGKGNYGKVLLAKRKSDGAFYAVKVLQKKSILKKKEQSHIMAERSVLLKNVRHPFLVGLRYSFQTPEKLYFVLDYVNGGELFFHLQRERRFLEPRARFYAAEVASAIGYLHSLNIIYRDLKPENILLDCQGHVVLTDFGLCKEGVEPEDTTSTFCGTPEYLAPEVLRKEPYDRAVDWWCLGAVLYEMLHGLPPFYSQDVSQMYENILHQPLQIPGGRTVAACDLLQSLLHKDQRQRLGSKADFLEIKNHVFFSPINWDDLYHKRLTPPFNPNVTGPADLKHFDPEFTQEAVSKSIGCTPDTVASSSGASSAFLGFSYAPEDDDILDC
Sequence of Tyrosine-protein kinase FRK (Homo sapiens) (P42685 whole entry): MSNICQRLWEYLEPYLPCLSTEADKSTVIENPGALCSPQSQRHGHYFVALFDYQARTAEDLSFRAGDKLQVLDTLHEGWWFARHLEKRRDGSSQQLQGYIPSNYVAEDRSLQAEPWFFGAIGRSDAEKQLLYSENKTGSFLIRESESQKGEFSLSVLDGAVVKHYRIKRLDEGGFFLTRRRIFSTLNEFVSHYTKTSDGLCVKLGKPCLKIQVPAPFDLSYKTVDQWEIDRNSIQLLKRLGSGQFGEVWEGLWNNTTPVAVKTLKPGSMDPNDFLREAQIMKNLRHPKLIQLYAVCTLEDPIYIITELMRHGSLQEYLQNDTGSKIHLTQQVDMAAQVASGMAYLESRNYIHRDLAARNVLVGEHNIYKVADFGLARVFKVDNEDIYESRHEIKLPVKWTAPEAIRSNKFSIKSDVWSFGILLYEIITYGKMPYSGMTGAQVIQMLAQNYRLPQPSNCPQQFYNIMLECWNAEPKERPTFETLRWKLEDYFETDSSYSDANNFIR

CCCCN(CCCC)C(=O)CN1C[C@@H](c2cc(OC)c3c(c2)OCO3)[C@H](C(=O)O)[C@H]1CC(C)(C)CCC [A-545]
residual activity [1]: 94.3% | residual activity [2]: 89.4% | residual activity [3]: 100% | residual activity [4]: 94.4% | residual activity [5]: 100% | residual activity [6]: 100% | residual activity [7]: 39.2% | residual activity [8]: 83.6% | residual activity [9]: 100% | residual activity [10]: 100% | residual activity [11]: 92.1% | residual activity [12]: 100% | residual activity [13]: 100% | residual activity [14]: 100% | residual activity [15]: 100% | residual activity [16]: 97.4% | residual activity [17]: 100% | residual activity [18]: 100% | residual activity [19]: 100% | residual activity [20]: 100% | residual activity [21]: 76.5% | residual activity [22]: 100% | residual activity [23]: 99.1% | residual activity [24]: 85.5% | residual activity [25]: 100% | residual activity [26]: 88.9% | residual activity [27]: 84.2% | residual activity [28]: 93.3% | residual activity [29]: 91% | residual activity [30]: 94% | residual activity [31]: 97.5% | residual activity [32]: 59.8% | residual activity [33]: 84.1% | residual activity [34]: 100% | residual activity [35]: 100% | residual activity [36]: 100% | residual activity [37]: 77.2% | residual activity [38]: 74.4% | residual activity [39]: 79.2% | residual activity [40]: 78.5% | residual activity [41]: 91.6% | residual activity [42]: 95.9% | residual activity [43]: 100% | inhibition [44]: 23% | inhibition [45]: 50%

CCCCN(CCCC)C(=O)CN1C[C@H](c2cc(OC)c3c(c2)OCO3)[C@@H](C(=O)O)[C@@H]1CC(C)(C)CCC [ABT-546]
residual activity [1]: 72.5% | residual activity [2]: 96.3% | residual activity [3]: 95.8% | residual activity [4]: 100% | residual activity [5]: 100% | residual activity [6]: 100% | residual activity [7]: 100% | residual activity [8]: 100% | residual activity [9]: 95.1% | residual activity [10]: 95.4% | residual activity [11]: 95.6% | residual activity [12]: 100% | residual activity [13]: 100% | residual activity [14]: 100% | residual activity [15]: 100% | residual activity [16]: 46.4% | residual activity [17]: 100% | residual activity [18]: 100% | residual activity [19]: 100% | residual activity [20]: 100% | residual activity [21]: 80.9% | residual activity [22]: 96.1% | residual activity [23]: 100% | residual activity [24]: 88.7% | residual activity [25]: 54.4% | residual activity [26]: 100% | residual activity [27]: 100% | residual activity [28]: 74.4% | residual activity [29]: 88.6% | residual activity [30]: 89.5% | residual activity [31]: 100% | residual activity [32]: 100% | residual activity [33]: 100% | residual activity [34]: 100% | residual activity [35]: 79.4% | residual activity [36]: 100% | residual activity [37]: 85.5% | residual activity [38]: 100% | residual activity [39]: 100% | residual activity [40]: 69.9% | residual activity [41]: 100% | residual activity [42]: 100% | residual activity [43]: 100% | inhibition [44]: -0.591% | inhibition [45]: 9.73%
